Source: US8278090B1, “Heterotrophic cultivation of hydrocarbon-producing microalgae” (Solazyme, Inc., priority 2008, dated 2012)
Values joined by “and” are separate entries in the source; they are usually repeats but may differ in a detail not shown here. Equal entries are not always repeated.

Columns and labels:
Format in all cases: cell-based
[1] = test system: Botryococcus braunii UTEX 572; assay: Complex nitrogen sources on heterotrophic growth with glucose; conditions: dark, 4 weeks
Description: (§1) The following experiment was done with UTEX 572, UTEX 2441, and N-836 in 20 ml of BG11 plus:
(§2) 1% glucose+2 g/L hydrolyzed casein

[2] = test system: Botryococcus braunii UTEX 2441; assay: as above; conditions: UTEX 2441, 1% glucose + 10 mM Urea, dark, 4 weeks
Description: as §1, §2

[3] = test system: Botryococcus braunii UTEX 572; assay: Different fixed carbon sources on heterotrophic growth, visual score; set-up: key to heterotrophic growth score, 0.1% / heterotrophic growth score, 0.5% / heterotrophic growth score, 1%: Growth was scored with +'s by visual examination of the cultures; ++: Growth was scored with +'s by visual examination of the cultures; +++: Growth was scored with +'s by visual examination of the cultures; ++++: Growth was scored with +'s by visual examination of the cultures; +++++: Growth was scored with +'s by visual examination of the cultures; conditions: for heterotrophic growth score, 0.1%: UTEX 572, 0.1% carbon source in 1 ml BG11, dark; for heterotrophic growth score, 0.1% / heterotrophic growth score, 0.5% / heterotrophic growth score, 1%: 4 weeks; for heterotrophic growth score, 0.5%: UTEX 572, 0.5% carbon source in 1 ml BG11, dark; for heterotrophic growth score, 1%: UTEX 572, 1% carbon source in 1 ml BG11, dark; for heterotrophic growth on carbon source, in words: UTEX 572, dark
Description: (§3) All carbon sources were tested at three different concentrations; 0.1%, 0.5% and 1%. Cultures were grown in 24 well plates for 4 weeks in the dark in 1 ml BG11 plus fixed carbon. Control cultures were grown in BG-11 media under phototrophic conditions without a fixed carbon source. Growth was scored with +'s by visual examination of the cultures (see Table 7). UTEX 572 grew best in glucose, however there was also growth on mannose, galactose and fructose. UTEX 2441 preferred mannose in the dark but there was some growth in galactose, fructose and glycerol.

[4] = test system: Botryococcus braunii UTEX 2441; assay: as above; set-up: key to heterotrophic growth score, 0.1% / heterotrophic growth score, 0.5% / heterotrophic growth score, 1%: Growth was scored with +'s by visual examination of the cultures; ++: Growth was scored with +'s by visual examination of the cultures; +++: Growth was scored with +'s by visual examination of the cultures; ++++: Growth was scored with +'s by visual examination of the cultures; +++++: Growth was scored with +'s by visual examination of the cultures; conditions: for heterotrophic growth score, 0.1%: UTEX 2441, 0.1% carbon source in 1 ml BG11, dark; for heterotrophic growth score, 0.1% / heterotrophic growth score, 0.5% / heterotrophic growth score, 1%: 4 weeks; for heterotrophic growth score, 0.5%: UTEX 2441, 0.5% carbon source in 1 ml BG11, dark; for heterotrophic growth score, 1%: UTEX 2441, 1% carbon source in 1 ml BG11, dark; for heterotrophic growth on carbon source, in words: UTEX 2441, dark
Description: as §3

[5] = test system: Botryococcus braunii N-836; assay: as above; set-up: key to heterotrophic growth score, 0.1% / heterotrophic growth score, 0.5% / heterotrophic growth score, 1%: Growth was scored with +'s by visual examination of the cultures; ++: Growth was scored with +'s by visual examination of the cultures; +++: Growth was scored with +'s by visual examination of the cultures; ++++: Growth was scored with +'s by visual examination of the cultures; +++++: Growth was scored with +'s by visual examination of the cultures; conditions: for heterotrophic growth score, 0.1%: N-836, 0.1% carbon source in 1 ml BG11, dark; for heterotrophic growth score, 0.1% / heterotrophic growth score, 0.5% / heterotrophic growth score, 1%: 4 weeks; for heterotrophic growth score, 0.5%: N-836, 0.5% carbon source in 1 ml BG11, dark; for heterotrophic growth score, 1%: N-836, 1% carbon source in 1 ml BG11, dark; for heterotrophic growth on carbon source, in words: N-836, dark
Description: as §3

[6] = test system: Botryococcus braunii UTEX 572; assay: Mixotrophic growth with fixed carbon source in BG11 media in light; conditions: for DCW / DCW mg/15 ml.: three weeks
Description: (§4) Modified BG-11 (17.65 mM NaNO3, 0.23 mM K2PO4, 0.3 mM MgSO4.7H2O, 0.25 mM CaCl2.2H2O, 0.189 mM Na2CO3, 0.03 mM citric acid monohydrate, 0.023 mM ferric ammonium citrate, 0.046 mM H3BO3, 9.15 μM MnCl2.4H2O, 0.77 μM ZnSO4.7H2O, 0.32 μM CuSO4.5H2O, 0.21 μM CoCl2.6H2O, 1.62 μM NaMoO4.2H2O, 2.69 μM Na2EDTA, 9 mg/l Tricine, 1.99 μM Thiamine-HCl, 0.006 μM Cyanocobalamine, 0.044 μM Calcium Pantothenate, 0.29 μM p-aminobenzoic acid, soil water). […] Dry cell weight (DCW) were measured after three weeks for the glycerol samples.

[7] = test system: Botryococcus braunii UTEX 2441; assay: as above; conditions: for DCW / DCW mg/15 ml.: three weeks
Description: as §4

[8] = UTEX 572, 1% glucose + 10 mM Urea
[9] = UTEX 572, 0.75% glycerol in BG11, light
[10] = UTEX 572, 1% glycerol in BG11, light
[11] = UTEX 572, 1.5% glycerol in BG11, light
[12] = UTEX 2441, 0.75% glycerol in BG11, light
[13] = UTEX 2441, 1% glycerol in BG11, light
[14] = UTEX 2441, 1.5% glycerol in BG11, light

Structure (SMILES): NC(N)=O [Urea, urea]
- increased growth over glucose only culture ([1]; UTEX 572, 10 mM urea + 1% glucose): 76%
- DCW [1, 8]: 0.467 g/L
- DCW mg/3 m1. [1, 8]: 1.4 mg/3 m1
- DCW [2]: 0.10 g/L and 0.067 g/L
- DCW mg/3 m1. [2]: 0.3 mg/3 m1 and 0.2 mg/3 m1

Structure (SMILES): CC(=O)[O-].[Na+] [acetate, sodium acetate]
- heterotrophic growth score, 0.1% [3]: +
- heterotrophic growth score, 0.5% [3]: +
- heterotrophic growth score, 1% [3]: +
- heterotrophic growth score, 0.1% [4]: ++
- heterotrophic growth score, 0.5% [4]: ++
- heterotrophic growth score, 1% [4]: ++
- heterotrophic growth score, 0.1% [5]: +
- heterotrophic growth score, 0.5% [5]: +
- heterotrophic growth score, 1% [5]: +

Structure (SMILES): O=C[C@@H](O)[C@H](O)[C@H](O)CO [arabinose]
- heterotrophic growth score, 0.1% [3]: +
- heterotrophic growth score, 0.5% [3]: +
- heterotrophic growth score, 1% [3]: +
- heterotrophic growth score, 0.1% [4]: ++
- heterotrophic growth score, 0.5% [4]: ++
- heterotrophic growth score, 1% [4]: ++
- heterotrophic growth score, 0.1% [5]: +
- heterotrophic growth score, 0.5% [5]: +
- heterotrophic growth score, 1% [5]: +

Structure (SMILES): O=C(CO)[C@@H](O)[C@H](O)[C@H](O)CO [fructose]
- heterotrophic growth score, 0.1% [3]: ++
- heterotrophic growth score, 0.5% [3]: ++
- heterotrophic growth score, 1% [3]: ++
- heterotrophic growth on carbon source, in words [3]: growth
- heterotrophic growth score, 0.1% [4]: ++
- heterotrophic growth score, 0.5% [4]: +++
- heterotrophic growth score, 1% [4]: +++
- heterotrophic growth on carbon source, in words [4]: some growth
- heterotrophic growth score, 0.1% [5]: +
- heterotrophic growth score, 0.5% [5]: +
- heterotrophic growth score, 1% [5]: ++
- heterotrophic growth on carbon source, in words [5]: heterotrophic growth

Structure (SMILES): O=C[C@H](O)[C@@H](O)[C@@H](O)[C@H](O)CO [galactose]
- heterotrophic growth score, 0.1% [3]: ++
- heterotrophic growth score, 0.5% [3]: +++
- heterotrophic growth score, 1% [3]: +++
- heterotrophic growth on carbon source, in words [3]: growth
- heterotrophic growth score, 0.1% [4]: ++
- heterotrophic growth score, 0.5% [4]: +++
- heterotrophic growth score, 1% [4]: ++
- heterotrophic growth on carbon source, in words [4]: some growth
- heterotrophic growth score, 0.1% [5]: ++
- heterotrophic growth score, 0.5% [5]: ++
- heterotrophic growth score, 1% [5]: ++
- heterotrophic growth on carbon source, in words [5]: heterotrophic growth

Structure (SMILES): OCC(O)CO [glycerol]
- heterotrophic growth score, 0.1% [3]: +
- heterotrophic growth score, 0.5% [3]: +
- heterotrophic growth score, 1% [3]: +
- heterotrophic growth score, 0.1% [4]: ++
- heterotrophic growth score, 0.5% [4]: +++
- heterotrophic growth score, 1% [4]: +++
- heterotrophic growth on carbon source, in words [4]: some growth
- heterotrophic growth score, 0.1% [5]: +
- heterotrophic growth score, 0.5% [5]: +
- heterotrophic growth score, 1% [5]: +
- DCW [6, 9]: 0.273 g/L and 0.206 g/L
- DCW mg/15 ml. [6, 9]: 4.1 mg/15 ml and 3.1 mg/15 ml
- DCW [6, 10]: 0.267 g/L and 0.20 g/L
- DCW mg/15 ml. [6, 10]: 4.0 mg/15 ml and 3.0 mg/15 ml
- DCW [6, 11]: 0.24 g/L and 0.293 g/L
- DCW mg/15 ml. [6, 11]: 3.6 mg/15 ml and 4.4 mg/15 ml
- difference in growth with or without glycerol ([6]; UTEX 572, light, mixotrophic): marginal difference
- DCW [7, 12]: 0.273 g/L and 0.286 g/L
- DCW mg/15 ml. [7, 12]: 4.1 mg/15 ml and 4.3 mg/15 ml
- DCW [7, 13]: 0.22 g/L and 0.32 g/L
- DCW mg/15 ml. [7, 13]: 3.3 mg/15 ml and 4.8 mg/15 ml
- DCW [7, 14]: 0.24 g/L and 0.286 g/L
- DCW mg/15 ml. [7, 14]: 4.3 mg/15 ml and 4.7 mg/15 ml
- increased growth with glycerol ([7]; UTEX 2441, light, mixotrophic): 66%
